Key:
OTUB1 [1] = details: background statement; cited from earlier work
Human OTUB1 wild-type = molecular target: T1, Human OTUB1 wild-type (Homo sapiens, UniProt Q96FW1); assay: Covalent modification of OTUB1 (adduct formation), mass spectrometry-based assay (OTUB1 covalent binders; selected CFTR or cGAS based bivalent compounds); format: binding; details: covalent adduct formation with OTUB1 protein
T1 construct: His tag (N); made in house; host or cells: E. coli BL21-CodonPlus (DE3)-RIPIL
Method in brief: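 His-tagged human OTUB1 (10 μM), E. coli-expressed, incubated with compound (2500 μM) in 50 mM Tris-HCl pH 7.5, 150 mM NaCl, 0.5 mM TCEP for 1 h at room temperature. Adduct detected by intact-protein LC/ESI-TOF mass spectrometry after buffer exchange; duplicates.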

OTUB1 [2] = details: background statement; cited from earlier work; remark: listed apart in the source
cGAS and OTUB1 = molecular target: T2, cGAS and OTUB1 (Homo sapiens, UniProt Q8N884+Q96FW1); assay: cGAS co-elution with OTUB1; format: binding; details: in the presence of compound; FIG. 6F
T2 construct: other panels use HeLa cells; recombinant His-OTUB1 from E. coli described
T2 sequence (Q8N884 whole entry): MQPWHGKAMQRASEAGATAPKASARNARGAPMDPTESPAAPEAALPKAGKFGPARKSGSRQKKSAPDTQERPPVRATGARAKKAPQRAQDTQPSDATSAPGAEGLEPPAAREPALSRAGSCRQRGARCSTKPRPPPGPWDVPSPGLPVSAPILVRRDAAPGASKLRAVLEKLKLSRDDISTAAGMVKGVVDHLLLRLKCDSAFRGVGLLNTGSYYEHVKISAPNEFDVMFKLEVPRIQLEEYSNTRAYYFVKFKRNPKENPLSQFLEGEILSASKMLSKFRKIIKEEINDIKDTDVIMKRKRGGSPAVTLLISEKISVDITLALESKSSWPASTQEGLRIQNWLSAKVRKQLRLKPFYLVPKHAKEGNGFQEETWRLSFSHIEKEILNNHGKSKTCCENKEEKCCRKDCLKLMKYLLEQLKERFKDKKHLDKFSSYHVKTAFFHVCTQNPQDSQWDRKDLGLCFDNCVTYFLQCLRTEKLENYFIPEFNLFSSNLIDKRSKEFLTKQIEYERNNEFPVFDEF
T2 sequence (Q96FW1 whole entry): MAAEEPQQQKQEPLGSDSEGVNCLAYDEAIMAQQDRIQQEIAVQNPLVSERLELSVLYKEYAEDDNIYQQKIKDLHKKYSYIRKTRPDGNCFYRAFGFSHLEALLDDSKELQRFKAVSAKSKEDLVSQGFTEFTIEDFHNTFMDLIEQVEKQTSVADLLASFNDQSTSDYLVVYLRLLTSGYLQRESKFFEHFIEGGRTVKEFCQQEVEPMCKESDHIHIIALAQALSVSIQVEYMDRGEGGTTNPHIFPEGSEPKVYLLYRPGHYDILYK

T1 sequence (Q96FW1 whole entry): as above

| SMILES | % of OTUB1 modified (Human OTUB1 wild-type) [%] | also measured |
| --- | --- | --- |
| Cc1ccc(S(=O)(=O)Nc2cc(C(F)(F)F)ccc2C(=O)Nc2nc(-c3ccccc3)cs2)cc1 [ML364] | – | inhibition of the enzymatic activity of OTUB1 (OTUB1 [2]): inhibit the enzymatic activity of OTUB1 |
| CN(C)C/C=C/C(=O)N1CCN(c2ccc(CCC(=O)NCCCCCCCCCNC(=O)Cn3ccc(-c4cc(Cl)c(Cl)c5[nH]c6c(c45)CN(C(=O)CO)CC6)n3)s2)C(=O)C1 [MS7829] | – | co-elution of cGAS with OTUB1 (cGAS and OTUB1): cGAS co-elutes with OTUB1 |
| Cc1ccc(C(=O)NC2CN(C(=O)C#CCN(C)C)C2)s1 [XS224-150, N-(1-(4-(dimethylamino)but-2-ynoyl)azetidin-3-yl)-5-methylthiophene-2-carboxamide] | 73 | – |
| CN(C)C/C=C/C(=O)N1CC(NC(=O)c2cc3ccccc3s2)C1 [XS224-154, (E)-N-(1-(4-(dimethylamino)but-2-enoyl)azetidin-3-yl)benzo[b]thiophene-2-carboxamide] | 80 | – |
| CN(C)CC#CC(=O)N1CC(NC(=O)c2cc3c(s2)CCCC3)C1 [XS224-158, N-(1-(4-(dimethylamino)but-2-ynoyl)azetidin-3-yl)-4,5,6,7-tetrahydrobenzo[b]thiophene-2-carboxamide] | 92 | – |
| CN(C)C(C)(C)C#CC(=O)N1CC(NC(=O)c2cc3c(s2)CCCC3)C1 [XS224-159, N-(1-(4-(dimethylamino)-4-methylpent-2-ynoyl)azetidin-3-yl)-4,5,6,7-tetrahydrobenzo[b]thiophene-2-carboxamide] | 92 | – |
| CN(C)C/C=C/C(=O)N1CCN(c2ccc(CCNC(=O)CCCCCCCCCC(=O)NCCn3ccc(-c4cc(Cl)c(Cl)c5[nH]c6c(c45)CN(C(=O)CO)CC6)n3)s2)C(=O)C1 [mS8588, (E)-N1-(2-(3-(6,7-dichloro-2-(2-hydroxyacetyl)-2,3,4,5-tetrahydro-1H-pyrido[4,3-b]indol-9-yl)-1H-pyrazol-1-yl)ethyl)-N11-(2-(5-(4-(4-(dimethylamino)but-2-enoyl)-2-oxopiperazin-1-yl)thiophen-2-yl)ethyl)undecanediamide] | – | co-elution of cGAS with OTUB1 (cGAS and OTUB1): cGAS co-elutes with OTUB1 |

Further lines, with some results ahead:

| % of OTUB1 modified (Human OTUB1 wild-type) [%] | SMILES | also measured |
| --- | --- | --- |
| 40 | C=CC(=O)N1CCN(c2ccc(C)o2)C(=O)C1 [EN523, reference compound] | binding affinity to OTUB1 (OTUB1 [1]): low binding affinity to OTUB1 |
| 97 | CN(C)CC#CC(=O)N1CC(NC(=O)c2cc3ccccc3s2)C1 [XS224-155, A-(1-(4-(dimethylamino)but-2-ynoyl)azetidin-3-yl)benzo[b]thiophene-2-carboxamide] | – |
| 85 | CN(C)C(C)(C)C#CC(=O)N1CC(NC(=O)c2cc3ccccc3s2)C1 [XS224-156, N-(1-(4-(dimethylamino)-4-methylpent-2-ynoyl)azetidin-3-yl)benzo[b]thiophene-2-carboxamide] | – |
| 49 | CN(C)C/C=C/C(=O)N1CC(NC(=O)c2cc3c(s2)CCCC3)C1 [XS224-157, (E)-N-(1-(4-(dimethylamino)but-2-enoyl)azetidin-3-yl)-4,5,6,7-tetrahydrobenzo[b]thiophene-2-carboxamide] | – |

— US20260315604A1, “OTUB1 Small-Molecule Binders and OTUB1-recruiting Deubiquitinase-targeting Chimeras (DUBTACs)” (ICAHN SCHOOL OF MEDICINE AT MOUNT SINAI, priority 2023, published 2026)
